The results in this text go back to US10912741B2, “Prevention of liver cancer with safranal-based formulations” (United Arab Emirates University, priority 2019, dated 2021).

The test system of one experiment is p-H2AX in HepG2 cells. Nature of the experiment: Western blotting, p-H2AX. As to conditions: 24 hours of safranal treatment (1 mM). It is filed as cell-based, human. The method, then: HepG2, were cultured in RPMI 1640 medium (HyClone, USA) and 1% of 100 U/ml penicillin and 100 ug/ml streptomycin (Sigma, USA) supplemented with 10% fetal bovine serum (Sigma, USA) at 37° C. in a humidified 5% CO2 atmosphere. Cells were sub-cultured each 4-6 days using trypsin 0.25% (Hyclone, USA).
In 100 mm plates, HepG2 cells were seeded at a density of 2×10^4 in complete growth medium. Cells were allowed to attach for 24 hours, after which complete growth medium was replaced by serum-free medium. Cells were treated with safranal at a concentration of 1 mM (20 mM stock). Plates were incubated for 6, 12, 24, and 48 hours in a humidified 5% CO2 atmosphere at 37° C. At indicated times, 1 mL of cell supernatant was obtained from each plate and was stored at −80° C. for further analysis by ELISA. After which whole cell lysates were prepared. Bicinchoninic acid (BCA) assay (Sigma-Aldrich, USA) was used to determine concentration of protein. Thirty μg of protein were loaded onto 10% SDS polyacrylamide electrophoresis gels. The gels were transferred onto nitrocellulose membranes prior to immunodetection processing with anti-p-IkB-alpha, anti-H2AX (Cell Signaling Technology, USA), and with anti-rabbit IgG peroxidase conjugated secondary antibodies. […]
In general terms: A western blot detects proteins with antibodies after separation by electrophoresis.

A further experiment relates to myeloperoxidase (MPO). The experiment can be described thus: Myeloperoxidase activity in liver homogenate, DEN/2-AAF hepatocarcinogenesis model. Type of experiment: in vivo, albino Wistar rats. As to conditions: mean±SEM, 8 rats. As to the method: (§1) The experimental hepatocarcinogenesis model was developed according to a protocol by […] et al. that was adapted for our purposes. To initiate and promote hepatocarcinogenesis, diethylnitrosamine (DEN) and 2-acetylaminofluorene (2-AAF) were used, respectively. For hepatocarcinogenesis initiation in this model, a single DEN dose (200 mg/kg b.wt.) dissolved in saline was injected intraperitoneally. After initiation, all rats underwent one period of 5-days fasting, as mitotic proliferative stimuli. To promote hepatocarcinogenesis, 2-acetylaminofluorene (2-AAF) was introduced in the form of six daily intragastric doses (30 mg/kg in 1% Tween 80); two weeks after DEN treatment. […] at doses of 25 mg/kg by weight (b.wt.) and 50 mg/kg b.wt, was administrated orally to rats. These doses have been reported to suppress chemically-induced oxidative damage in rats. A total of 40 adult male albino Wistar rats were randomly divided into […] (n=8) and were subjected to different treatments. Group 1 (control) was orally administered distilled water (5 ml/kg b.wt.) throughout the experimental duration and were injected with a single dose of saline. Group 2 ([…] only) was subjected to a safranal dose (50 mg/kg b.wt.) through oral administration for the duration of the experimental period. Hepatocarcinogenesis was induced by DEN and promoted by 2-AAF, as reported previously, in group 3 (HCC). […] Glutathione (GSH) content was determined by analyzing liver homogenates, according to the method of Van Dooran et al. The assay depends on measuring yellow 5-thiol-2-nitrobenzoate absorbance at 412 nm. Glutathione-S-transferase (GST) activity was determined using the method of Habig et al. GST catalyzes the conjugation of GSH thiol group with 1-Chloro-2,4-dinitrobenzene (CDNB), which can be measured by determining the increase in absorbance at 340 nm. […] CAT decomposes hydrogen peroxide (H2O2) to oxygen and water; therefore, the activity of CAT was evaluated according to by the exponential decomposition of H2O2 at 240 nm. […] UV-160-Shimadzu recording spectrophotometer was used to record absorbances. […]

For the next experiment, the system named is Malondialdehyde (MDA). The experiment can be described thus: MDA level in liver homogenate, DEN/2-AAF hepatocarcinogenesis model. It is filed as in vivo, albino Wistar rats. The settings on record: mean±SEM, 8 rats. As to the method: as §1
Another experiment relates to catalase (CAT). Nature of the experiment: Catalase activity in liver homogenate, DEN/2-AAF hepatocarcinogenesis model. It is filed as in vivo, albino Wistar rats. As to conditions: mean±SEM, 8 rats. As to the method: as §1
Setting [1] is: HCC (DEN/2-AAF) rats + safranal high dose 50 mg/kg b.wt. oral, 12 weeks.
[2] abbreviates: HCC (DEN/2-AAF) rats + safranal low dose 25 mg/kg b.wt. oral, 12 weeks.
Where [3] appears, read: safranal alone 50 mg/kg b.wt. oral, no DEN (group 2).

`CC1=C(C=O)C(C)(C)CC=C1` [Safranal, 2,6,6-trimethylcyclohexa-1,3-diene-1-carbaldehyde]: in the experiment on p-H2AX in HepG2 cells, the “protein level of p-H2AX” value is listed as “remarkable induction of p-H2AX”. The results for the MPO with myeloperoxidase (MPO) (setting [1]), with myeloperoxidase (MPO) (setting [2]) and in the experiment on myeloperoxidase (MPO) (setting [3]) were 31.54 ± 2.4 milliunit/mg protein, 27.47 ± 1.77 milliunit/mg protein and 32.61 ± 1.61 milliunit/mg protein, respectively. Moreover, the MDA was determined as 0.63 ± 0.03 nmol/mg protein in the experiment on Malondialdehyde (MDA) (setting [1]), 0.61 ± 0.02 nmol/mg protein with Malondialdehyde (MDA) (setting [2]) and 0.64 ± 0.02 nmol/mg protein in the experiment with Malondialdehyde (MDA) (setting [3]). Moreover, the results for the CAT with catalase (CAT) (setting [1]), in the experiment on catalase (CAT) (setting [2]) and in the experiment with catalase (CAT) (setting [3]) were 145.4512 ± 4.57 unit/mg protein, 141.38 ± 0.91 unit/mg protein and 143.75 ± 1.2 unit/mg protein, respectively.
